Measured values reported in US7858741B2, “Stabilization of the collagen triple helix by O-methylation of hydroxyproline residues” (Wisconsin Alumni Research Foundation, priority 2008, dated 2010).
Where two headings read alike, the source gives them in different places. Marks after values point to notes of the source that are not given here. Blank lines part the entries; values can stand above or below the molecule they belong to.

How the values were obtained:
[1] = cited from earlier work; for ΔG: values from Nishi et al. (2005) (Kobayashi and coworkers); for ΔG / TΔS / ΔH: normalized to T°=71.9° C.; for TΔS / ΔH: values from Nishi et al. (2005)
[2] = Sakakibara et al. (1973); cited from earlier work
[3] = value from Holmgen et al. Nature 392:666-667 (1998); cited from earlier work
[4] = Thermal denaturation of collagen triple helices by circular dichroism (Tm); assay type: physicochemical; conditions: for Tm, water / Tm, EG(aq): circular dichroism, peptide 200 μM; for Tm, water: 50 mM HOAc (pH 3.0); for Tm, EG(aq): 2:1 EG/50 mM HOAc (pH 3.0)
Protocol: CD spectra were recorded with an Aviv 202SF circular dichroism spectrometer. Spectra were recorded on peptide solutions (100 μM in 50 mM HOAc (pH 2.9)) that had been incubated at ≦4° C. for ≧48 h in 1-nm increments with a 3-s averaging time, 1-nm bandpass, and 0.1-cm pathlength. Samples for thermal stability experiments were generated by incubating peptide solutions (200 μM) at 4° C. for ≧48 h. The solutions were then heated from 4° C. to 97° C. (for samples in 50 mM HOAc (aq) (pH 2.9)) or to 106° C. (for samples in 2:1 ethylene glycol/50 mM HOAc(aq)) at 3-° C. increments with a 5-min equilibration at each step. The ellipticity at 225 nm was monitored with a 5-s averaging time, 1-nm bandpass, and 0.1-cm pathlength. Values of Tm were determined by fitting the data to a two-state model. (See Becktel and Schellman Biopolymers 26:1859-1877 (1987)).

[5] = Differential scanning calorimetry (DSC) of triple-helix unfolding; assay type: physicochemical; conditions: for Tm (DSC exotherm maxima): scan rate 15° C./h; for TΔS / ΔG / ΔH: DSC
Protocol: DSC measurements were conducted on a VP-DSC instrument (MicroCal, LLC, Northampton, Mass.). For each peptide, an instrument baseline was established by filling both the sample and the reference cell with degassed 50 mM HOAc(aq) (pH 2.9) and scanning from 5-98° C. at 15° C./h until at least 3 consecutive overlaying scans were observed. The last of these scans was used as the baseline for each subsequent peptide scan.
Peptide solutions (˜0.5 mg/mL in 50 mM HOAc(aq)), incubated at 4° C. for ≧48 h, were degassed and loaded into the sample cell (without removing the reference solution) during the cool down from the final baseline scan (at ˜15° C.). Samples were scanned from 5-98° C. at 15° C./h; the first scan of each sample was used in the analysis. […] Nevertheless, a second run with a fresh sample (incubated at 4° C. for ≧48 h) gave a trace that overlaid with the initial scan for both peptides.
After DSC measurements, peptide concentrations were determined by quantitative amino acid analysis (Scientific Research Consortium, Inc., St. Paul, Minn.). Peptide concentrations of 231 μM for (ProHypGly)10 and 129 μM for (ProMopGly)10 were calculated from the average of Gly and Pro content.
Data processing was done using the MicroCal software in the Origin 7 program (OriginLab Corp., Northampton, Mass.). For each sample, the appropriate reference scan was subtracted from the sample scan and the data were normalized to the monomer concentrations (determined above).
Values of ΔH (per mole of monomer) were obtained by direct integration of the DSC exotherms. Using ΔH and the exotherm maxima as the Tm (64.3° C. for (ProHypGly)10 and 73.8° C. for (ProMopGly)10), TΔS (at Tm) was calculated with the equation: Tm=ΔH/(ΔS+R·1n(0.75c^2)), where c is the concentration of monomeric peptide. (See Engel and Bäichinger P. Top. Curr. Chem. 247:7-33 (2005)). Values of ΔG were then calculated with the equation: ΔG=ΔH−TΔS. […] (See Nishi et. al. (2005)). The data of Kobayashi and coworkers were normalized to T°=71.9° C. (which is the T° for (ProProGly)10, i.e. where ΔG=0). Because our thermodynamic data for (ProMopGly)10 were determined at nearly the same temperature (73.8° C.), comparisons of the three peptides are meaningful.

[6] = cited from earlier work
[7] = cited from earlier work; remark: listed apart in the source
[8] = compared with (ProProGly)10 chains; Chopra and Ananthanarayanan (1982); cited from earlier work
[9] = Crystal structure conformation (main-chain dihedral angles, n→π* geometry); assay type: physicochemical; conditions: crystalline Ac-Mop-OMe
Protocol: [^13CH3]Ac-Mop-OMe (10 mg) was dissolved in 1:1 CH2Cl2/hexanes (1 mL) and the solution was allowed to stand at room temperature in a loosely-capped vial. Slow evaporation afforded crystals suitable for X-ray analysis after ˜72 h (all solvent had evaporated).
A colorless crystal with approximate dimensions 0.49×0.41×0.23 mm^3 was selected under oil under ambient conditions and attached to the tip of a nylon loop. The crystal was mounted in a stream of cold N2 (g) at 100(2) K and centered in the X-ray beam by using a video camera.
The crystal evaluation and data collection were performed on a Bruker CCD-1000 diffractometer with Mo Kα (λ=0.71073 Å) radiation and the diffractometer-to-crystal distance of 4.9 cm.
The initial cell constants were obtained from three series of scans at different starting angles. Each series consisted of 20 frames collected at intervals of 0.3° in a 6° range about ω with the exposure time of 10 s per frame. A total of 69 reflections were obtained. The reflections were indexed successfully by an automated indexing routine built in the SMART program. The final cell constants were calculated from a set of 4805 strong reflections from the actual data collection.
Data were collected by using the full-sphere data collection routine. The reciprocal space was surveyed to the extent of a full sphere to a resolution of 0.80 Å. A total of 6155 data were harvested by collecting three sets of frames with 0.3° scans in ω and ? with an exposure time 10 s per frame. These highly redundant datasets were corrected for Lorentz and polarization effects. The absorption correction was based on fitting a function to the empirical transmission surface as sampled by multiple equivalent measurements. (Bruker-AXS. (2000-2003) SADABS V.2.05, SAINT V.6.22, SHELXTL V.6.10 & SMART 5.622 Software Reference Manuals. Bruker-AXS, Madison, Wis., USA.)
The systematic absences in the diffraction data were consistent for the space groups P21 and P21/m.
A successful solution by the direct methods provided most non-hydrogen atoms from the E-map. The remaining non-hydrogen atoms were located in an alternating series of least-squares cycles and difference Fourier maps. All non-hydrogen atoms were refined with anisotropic displacement coefficients. All hydrogen atoms were found in the difference map and refined independently. The absolute configuration was assigned from the known synthetic procedure.
The final difference Fourier map was featureless. The molecular diagram is drawn with 50% probability ellipsoids as depicted in FIG. 2.

[10] = mean values for Hyp in 13 (Bella et al. 1994; Miles and Burjanadze 2001)
[11] = values from Bretscher et al. (2001)
[12] = mean values from two molecules in ref 18

Molecule: (ProProGly)10
T° (where ΔG=0) ([1]; data of Kobayashi and coworkers (Nishi et al. 2005)): 71.9 °C | melting temperature of a triple helix [2]: 24 °C

Molecule: (ProFlpGly)10 [Peptide 3]
Tm, water [3]: 91^d ° C. | ΔG [1]: −3.3^c kcal/mol | TΔS [1]: −17.2^c kcal/mol | ΔH [1]: −20.5^c kcal/mol

Molecule: (ProHypGly)10 [Peptide 1]
Tm, water [4]: 62.0 °C | Tm, EG(aq) [4]: 77.1 °C | Tm (DSC exotherm maxima) ([5]; 50 mM HOAc): 64.3 °C | TΔS ([5]; at 64.3° C.): -27.3 kcal/mol | ΔG ([5]; at 64.3° C.): -2.2 kcal/mol | ΔH ([5]; at 64.3° C.): -29.5 kcal/mol | ΔG [1]: −2.0^c kcal/mol | ΔG ([1]; listed as (ProHypGly)10): -2.0 kcal/mol | TΔS [1]: −33.2^c kcal/mol | ΔH [1]: −35.2^c kcal/mol | Kt/c ([6]; Hyp in 13 (triple helix)): ∞ | φ [7, 10]: −59.6 ° | ψ [7, 10]: 149.8 ° | ω [7, 10]: 178.5 ° | melting temperature of a triple helix [2]: 58 °C | rate at which chains fold into a triple helix [8]: substantially greater

Molecule: COC(=O)[C@@H]1C[C@@H](O)CN1C(C)=O [Ac-Hyp-OMe]
Kt/c [6, 11]: 6.1 | φ [7, 12]: −57.0 ° | ψ [7, 12]: 150.8 ° | ω [7, 12]: −178.8 °

φ [9]: −58.1 ± 0.1 ° | ψ [9]: 147.7 ± 0.1 ° | ω [9]: −179.7 ± 0.1 ° | Oi-1...C′i=Oi angle ([9]; n→π* interaction): 94.6 ° | Oi-1...C′i=Oi distance ([9]; n→π* interaction): 2.84 Å
Molecule: COC(=O)[C@@H]1C[C@@H](OC)CN1C(C)=O [Ac-Mop-OMe, N-(2-^13CH3-Acetyl)-(2S,4R)-4-methoxyproline methyl ester]

Molecule: COC(=O)[C@@H]1C[C@@H](F)CN1C(C)=O [Ac-Flp-OMe]
Kt/c [6, 11]: 6.7 | φ [7, 12]: −55.0 ° | ψ [7, 12]: 140.5 ° | ω [7, 12]: −178.9 °

stability of triple helix compared with triple helical peptide 1 ([4]; aqueous ethylene glycol): more stable | Tm, water [4]: 70.1 °C | Tm, EG(aq) [4]: 89.1 °C | Tm (DSC exotherm maxima) ([5]; 50 mM HOAc): 73.8 °C | TΔS ([5]; at Tm 73.8° C., calculated from ΔH and Tm): -25.2 kcal/mol | ΔH ([5]; per mole of monomer, 50 mM HOAc, at 73.8° C.): -27.9 kcal/mol | ΔG ([5]; ΔG=ΔH−TΔS, at 73.8° C.): -2.7 kcal/mol
Molecule: (ProMopGly)10 [Peptide 2]
conformational stability of triple helices compared with those of 1 ([4]; in water (50 mM HOAc)): substantially more conformational stability

triple-helix stability compared with Hyp (or Mop) ([4]; in water, no value or method printed): less stable
Molecule: (ProEopGly)10
